# Experimental data from patent publication US20150290192A1, “INHIBITORS OF BRUTON'S TYROSINE KINASE” (HOFFMANN-LA ROCHE INC., priority 2012, published 2015).
# Where two headings read alike, the source gives them in different places. Marks after values point to notes of the source that are not given here.
# Assays:
# [1] = system: human B cells (BCR activation); test: Human B cell antibody production after BCR activation; type: cell-based; details: Homo sapiens, B-cell, 240 h, 10 days culture, N = 3 donors
# Experimental: Human total B cells were enriched with RosetteSep human B cell enrichment cocktail (#28921, Vancouver, BC) from buffy coat leukocyte packs (New York Blood Center) following manufacturer's protocol. Enriched B cell purity (around 80%) was checked by FACS with CD19+ staining. B cells were suspended (0.1 million cells/well/100 μl) in RPMI-1640 based conditional medium (50 ng/ml IL-2, 50 ng/ml IL-10, and […] anti-IgD for the activation of B cells to produce IgG/IgM; 10 ng/ml IL-4, 10 ng/ml IL-10, 25 ng/ml IL-21, and […] anti-CD40 for the activation of B cells to produce IgE) together with Compound 1 (1 nM-10 μM). Cells were cultured for 10 days (for IgG/IgM production) or 14 days (for IgE production) at 37° C. Culture supernatants were collected for IgM, IgG, and IgE analysis following Bethyl Laboratory's protocol (#E80-104, #E80-100, #E80-108, Montgomery, Tex.).
# Bruton's Tyrosine Kinase = Bruton's Tyrosine Kinase (Homo sapiens, UniProt Q06187); test: Bruton's Tyrosine Kinase (BTK) inhibition TR-FRET competition assay; type: binding; details: for IC50: inactivated state of BTK, 18-24 h at 14° C.
# Experimental: This BTK competition assay measures compound potency (IC50) for the inactivated state of Bruton's Tyrosine Kinase using FRET (Firster/Fluorescence Resonance Energy Transfer) technology. The BTK-Eu complex was incubated on ice one hour prior to use at a starting concentration of 50 nM BTK-Bioease™: 10 nM Eu-streptavidin (Perkin-Elmer Catalog#AD0062). The assay buffer consisted of 20 mM HEPES (pH 7.15), 0.1 mM DTT, 10 mM MgCl2, 0.5 mg/ml BSA with 3% Kinase Stabilizer (Fremont Biosolutions, Catalog #STB-K02). After 1 h, the reaction mixture from above was diluted 10 fold in assay buffer to make 5 nM BTK: InM Eu-Streptavidin complex (donor fluorophore). 18 l of a mixture of 0.11 nM BTK-Eu and 0.11 nM Kinase Tracer 178 (Invitrogen, Catalog #PV5593,) with BTK-Eu alone as no negative control, was then dispensed into 384-well flat bottom plates (Greiner, 784076). Compounds to be tested in assay were prepared as 10× concentrations and serial dilution in half-log increments was performed in DMSO so as to generate 10 point curves. To initiate the FRET reaction, compounds prepared as 10× stock in DMSO was added to the plates and the plates were incubated 18-24 h at 14° C.
# After the incubation the plates were read on a BMG Pherastar Fluorescent plate reader (or equivalent) and used to measure the emission energy from the europium donor fluorophore (620 nm emission) and the FRET (665 nm emission). The negative control well values were averaged to obtain the mean minimum. The positive “no inhibitor” control wells were averaged to obtain the mean maximum. Percent of maximal FRET was calculated using following equation:
# % max FRET=100×[(FSRcmpd−FSRmean min)/(FSRmean max−FSRmean min)]
# where FSR=FRET Signal ratio. % Max FRET curves were plotted in Activity Base (Excel) and the IC50(%), hill slope, z′ and % CV were determined. The mean IC50 and standard deviation will be derived from duplicate curves (singlet inhibition curves from two independent dilutions) using Microsoft Excel.
# Btk kinase = Btk kinase (Homo sapiens, UniProt Q06187); test: Btk Biacore binding assay; details: for off rate: Biacore; for kon: read-out: Biacore Ka
# Experimental: Analyses were performed on a Biacore T-100. Btk kinase was avi-tagged and co-expressed in baculovirus with biotin ligase to generate single site biotinylated Btk (Avidity, LLC). Biotinylated target was captured on Biacore streptavidin sensor chips (Series S Sensor Chip SA) at densities of ˜10000 resonance units (1 ru˜1 pg protein/mm2). […] Compounds were injected for 100 seconds association time and dissociation was followed for 20 min.
# Pharmacokinetics in rat = type: in vivo; details: for CL / clearance: 0.5 mg/kg (iv); for Oral Bioavailability / bioavailability: 0.5 (iv), 2 (po) mg/kg; for clearance / bioavailability: plasma; for bioavailability: 2 mg/kg
# [2] = system: human mast cells (FCεRI activation); test: Human mast cell activation, mediator release after FCεRI activation; type: cell-based; details: N = 3 donors
# Experimental: One million human cord blood derived CD34+ hematopoietic stem cells (HSCs) from different donors (AllCells #CB008F-S, Emeryville, Calif.) were cultured for eight weeks in a serum-free complete medium (StemPro-34 with supplements; Invitrogen, Carlsbad, Calif.), with recombinant h-SCF (100 ng/ml) and h-IL6 (50 ng/ml). During the first week of culturing, recombinant h-IL3 (10 ng/ml) was also included to support HSCs differentiation. After 8 weeks of culture, cells were stimulated with recombinant h-IL-4 (10 ng/ml) for 5 days. Confirmation of the mast cell differentiation process was routinely done by FACS to check for c-kit and FcsRI expression; differentiated cells were routinely more than 90% c-kit positive, FceRI positive. Differentiated mast cells were sensitized with […] anti-NP IgE (Serotec, Raleigh, N.C.) overnight at 37° C. Cells were washed and then treated with Compound 1 for 1 hour at 37° C. After treatment, cells were cross-linked with […] NP(30)-BSA (Biosearch Technologies, Novato Calif.) for 30 minutes (for histamine and lipid mediator assessment) or overnight (for cytokine assessment). Culture supernatants were collected and assayed for histamine (Oxford Biomedical Research, Rochester Hills, Mich.), PGD2 and LTC4 (Cayman Chemical Company, Ann Arbor Mich.), and IL-5 and IL-13 (Bio-Rad Bio-Plex Pro cytokine quantification kit) release as per kits' instructions. Compound 1, Compound 2 and Compound 3 reduced the release of these mediators into the supernatant in a concentration dependent manner up to 100% efficacy and the IC50 values are reported in Table 2.
# Pharmacokinetics in dog = type: in vivo; details: for CL / clearance: 1.0 mg/kg (iv); for Oral Bioavailability / bioavailability: 1.0 (iv), 1.0 (po) mg/kg; for clearance / bioavailability: plasma; for bioavailability: 1 mg/kg
# [3] = system: OVA sensitized and challenged mice, allergen-induced bronchoconstriction; test: Ovalbumin-induced allergic airway disease: allergen-induced bronchoconstriction; details: Intranasal
# [4] = read-out: IC50 Histamine release
# [5] = delivered dose 0.3 mg/kg, deposited dose 0.3 mg/kg
# [6] = delivered dose 1.0 mg/kg, deposited dose 1.0 mg/kg
# [7] = delivered dose 3.0 mg/kg, deposited dose 3.0 mg/kg
# Sequence of Bruton's Tyrosine Kinase (Q06187 whole entry): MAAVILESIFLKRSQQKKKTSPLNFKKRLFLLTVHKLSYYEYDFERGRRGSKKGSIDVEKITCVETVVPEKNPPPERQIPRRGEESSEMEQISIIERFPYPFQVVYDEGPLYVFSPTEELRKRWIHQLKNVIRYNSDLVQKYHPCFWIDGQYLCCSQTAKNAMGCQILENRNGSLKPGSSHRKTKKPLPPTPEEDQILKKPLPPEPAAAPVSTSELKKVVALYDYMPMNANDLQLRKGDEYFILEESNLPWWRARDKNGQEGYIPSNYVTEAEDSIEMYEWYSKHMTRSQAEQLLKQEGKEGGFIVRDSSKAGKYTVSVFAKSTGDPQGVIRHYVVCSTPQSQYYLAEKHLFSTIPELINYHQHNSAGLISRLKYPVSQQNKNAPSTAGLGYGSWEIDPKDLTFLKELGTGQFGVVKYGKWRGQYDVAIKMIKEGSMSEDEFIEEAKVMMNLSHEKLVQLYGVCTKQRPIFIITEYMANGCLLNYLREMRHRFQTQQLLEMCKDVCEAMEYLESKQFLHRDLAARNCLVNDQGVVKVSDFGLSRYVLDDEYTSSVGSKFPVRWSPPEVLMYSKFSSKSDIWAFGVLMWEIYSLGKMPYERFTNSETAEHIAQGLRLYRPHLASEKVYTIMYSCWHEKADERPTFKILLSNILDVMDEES
# Sequence of Btk kinase (Q06187 whole entry): as above
IC50 ([1]; read-out: IC50 IgG production) [nM],IC50 ([1]; read-out: IC50 IgM production) [nM],Btk inhibitor potency (FRET) (Bruton's Tyrosine Kinase),IC50 (Bruton's Tyrosine Kinase) [nM],Kd (Btk kinase) [nM],off rate (Btk kinase),kon (Btk kinase) [M⁻¹ s⁻¹],IC50 ([2]; read-out: IC50 1L-13 release) [nM],IC50 ([2]; read-out: IC50 GM-CSF release) [nM],"IC50 [2, 4] [nM]",IC50 ([2]; read-out: IC50 IL-5 release) [nM],IC50 ([2]; read-out: IC50 PGD2 release) [nM],Compound,"% reduction in airway resistance (R) [3, 5]","% reduction in airway resistance (R) [3, 6]","% reduction in airway resistance (R) [3, 7]",further results
9.26,3.28,very potent,1.1,1.48,very slow,453000,91.9,26,9.6,13.2,3.09,"Cn1nc(Nc2cc(-c3cccc(-n4ccc5cc(C(C)(C)C#N)cc(F)c5c4=O)c3CO)nn(C)c2=O)cc1CN1CCC1 [Compound 2, 2-(2-{3-[5-(5-Azetidin-1-ylmethyl-1-methyl-1H-pyrazol-3-ylamino)-1-methyl-6-oxo-1,6-dihydro-pyridazin-3-yl]-2-hydroxymethyl-phenyl}-8-fluoro-1-oxo-1,2-dihydro-isoquinolin-6-yl)-2-methyl-propionitrile]",53%,64* %,105* %,CL (Pharmacokinetics in rat; Table 8): high; Oral Bioavailability (Pharmacokinetics in rat; Table 8): low; clearance (Pharmacokinetics in rat; Table 8): 84.9 mL/min/kg; bioavailability (Pharmacokinetics in rat; Table 8): < 2%; CL (Pharmacokinetics in dog; Table 8): high; Oral Bioavailability (Pharmacokinetics in dog; Table 8): low; clearance (Pharmacokinetics in dog; Table 8): 35 mL/min/kg; bioavailability (Pharmacokinetics in dog; Table 8): 4%
3.17,4.76,very potent,0.2,0.119,very slow,1.07e+06,97.4,28.6,21.7,86.7,5.31,"COCCNCc1ccc(Nc2cc(-c3cccc(N4CCc5cc(C(C)(C)C)ccc5C4=O)c3CO)cn(C)c2=O)nc1 [Compound 3, 6-tert-Butyl-2-[2-hydroxymethyl-3-(5-{5-[(2-methoxy-ethylamino)-methyl]-pyridin-2-ylamino}-1-methyl-6-oxo-1,6-dihydro-pyridin-3-yl)-phenyl]-3,4-dihydro-2H-isoquinolin-1-one]",77* %,83* %,93* %,CL (Pharmacokinetics in rat; Table 9): high; Oral Bioavailability (Pharmacokinetics in rat; Table 9): low; clearance (Pharmacokinetics in rat; Table 9): 111 mL/min/kg; bioavailability (Pharmacokinetics in rat; Table 9): 7%; CL (Pharmacokinetics in dog; Table 9): high; Oral Bioavailability (Pharmacokinetics in dog; Table 9): low; clearance (Pharmacokinetics in dog; Table 9): 31.4 mL/min/kg; bioavailability (Pharmacokinetics in dog; Table 9): 8%
